Assay results taken from patent EP4678638A1, “NEW E3 UBIQUITIN LIGASE LIGAND, PROTEIN DEGRADATION AGENT AND USE THEREOF” (priority 2023, dated 2024).

Legend:
[1] = test system: SR; test: CCK-8 proliferation, SR; format: cell-based, Human; settings: Homo sapiens; Table B6, compounds designed based on the ALK inhibitors; SR cells; read-out: Inhibitory activity (IC50, nM) on tumor cell proliferation, SR
Summary of the method: (§1)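 Cells seeded, then after 24 h treated with 10 concentrations (top 10 µM, 5-fold serial dilution) for a line-specific time at 37°C, 5% CO2. Viability read by CCK-8; IC50 fitted from growth-inhibition curves.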

[2] = test system: H2228; test: CCK-8 proliferation, NCI-H2228 (H2228); format: cell-based; settings: Homo sapiens, NCI-H2228; Table B6, compounds designed based on the ALK inhibitors; H2228 cells; read-out: Inhibitory activity (IC50, nM) on tumor cell proliferation, H2228
Summary of the method: as §1

[3] = test system: MCF7; test: CCK-8 proliferation, MCF7 (MCF-7); format: cell-based; settings: Homo sapiens, MCF7; Table B6, compounds designed based on the ALK inhibitors; MCF-7 cells; read-out: Inhibitory activity (IC50, nM) on tumor cell proliferation, MCF-7
Summary of the method: as §1

[4] = target: T1, ALK (Homo sapiens, UniProt Q96SW2+Q9HC35+Q9UM73); test: Western blot degradation of ALK (H2228 Cell); format: cell-based; settings: Table D5
T1 construct: evaluate the effects of the compounds of the present disclosure on the expression of target proteins in cells; endogenous in cells; host or cells: H2228
T1 sequence (Q9HC35+Q9UM73 fused): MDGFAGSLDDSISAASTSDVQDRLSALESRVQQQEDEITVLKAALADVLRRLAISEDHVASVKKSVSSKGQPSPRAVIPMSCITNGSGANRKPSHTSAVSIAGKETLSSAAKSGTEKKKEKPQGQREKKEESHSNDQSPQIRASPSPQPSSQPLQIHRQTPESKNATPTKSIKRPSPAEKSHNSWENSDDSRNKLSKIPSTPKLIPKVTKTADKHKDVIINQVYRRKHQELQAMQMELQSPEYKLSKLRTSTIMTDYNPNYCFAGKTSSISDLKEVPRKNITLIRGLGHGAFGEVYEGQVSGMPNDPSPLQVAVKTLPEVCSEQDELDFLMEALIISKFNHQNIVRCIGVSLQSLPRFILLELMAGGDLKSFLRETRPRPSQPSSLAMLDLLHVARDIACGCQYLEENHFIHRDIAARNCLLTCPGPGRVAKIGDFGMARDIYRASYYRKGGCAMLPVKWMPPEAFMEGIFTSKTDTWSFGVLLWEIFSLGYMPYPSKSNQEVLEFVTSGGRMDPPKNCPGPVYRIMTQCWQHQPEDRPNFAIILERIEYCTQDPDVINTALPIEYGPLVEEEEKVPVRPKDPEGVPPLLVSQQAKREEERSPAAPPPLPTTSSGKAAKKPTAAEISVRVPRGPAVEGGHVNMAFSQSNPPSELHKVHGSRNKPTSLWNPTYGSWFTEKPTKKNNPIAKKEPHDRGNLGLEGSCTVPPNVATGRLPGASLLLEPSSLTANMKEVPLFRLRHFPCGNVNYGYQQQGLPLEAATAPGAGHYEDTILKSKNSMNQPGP
T1 sequence (Q96SW2 whole entry): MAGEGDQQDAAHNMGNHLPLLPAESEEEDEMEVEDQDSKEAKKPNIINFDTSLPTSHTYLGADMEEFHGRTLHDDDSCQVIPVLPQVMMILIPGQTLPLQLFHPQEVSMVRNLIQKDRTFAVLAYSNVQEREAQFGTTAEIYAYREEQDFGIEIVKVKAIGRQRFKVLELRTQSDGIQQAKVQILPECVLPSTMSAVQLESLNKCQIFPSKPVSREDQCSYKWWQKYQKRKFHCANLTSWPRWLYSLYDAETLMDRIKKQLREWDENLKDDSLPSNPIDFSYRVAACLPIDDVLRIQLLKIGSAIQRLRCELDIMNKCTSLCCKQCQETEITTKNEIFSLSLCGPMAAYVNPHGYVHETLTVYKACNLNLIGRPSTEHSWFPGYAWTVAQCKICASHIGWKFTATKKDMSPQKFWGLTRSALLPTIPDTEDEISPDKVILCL
T1 sequence (Q16531 whole entry partner): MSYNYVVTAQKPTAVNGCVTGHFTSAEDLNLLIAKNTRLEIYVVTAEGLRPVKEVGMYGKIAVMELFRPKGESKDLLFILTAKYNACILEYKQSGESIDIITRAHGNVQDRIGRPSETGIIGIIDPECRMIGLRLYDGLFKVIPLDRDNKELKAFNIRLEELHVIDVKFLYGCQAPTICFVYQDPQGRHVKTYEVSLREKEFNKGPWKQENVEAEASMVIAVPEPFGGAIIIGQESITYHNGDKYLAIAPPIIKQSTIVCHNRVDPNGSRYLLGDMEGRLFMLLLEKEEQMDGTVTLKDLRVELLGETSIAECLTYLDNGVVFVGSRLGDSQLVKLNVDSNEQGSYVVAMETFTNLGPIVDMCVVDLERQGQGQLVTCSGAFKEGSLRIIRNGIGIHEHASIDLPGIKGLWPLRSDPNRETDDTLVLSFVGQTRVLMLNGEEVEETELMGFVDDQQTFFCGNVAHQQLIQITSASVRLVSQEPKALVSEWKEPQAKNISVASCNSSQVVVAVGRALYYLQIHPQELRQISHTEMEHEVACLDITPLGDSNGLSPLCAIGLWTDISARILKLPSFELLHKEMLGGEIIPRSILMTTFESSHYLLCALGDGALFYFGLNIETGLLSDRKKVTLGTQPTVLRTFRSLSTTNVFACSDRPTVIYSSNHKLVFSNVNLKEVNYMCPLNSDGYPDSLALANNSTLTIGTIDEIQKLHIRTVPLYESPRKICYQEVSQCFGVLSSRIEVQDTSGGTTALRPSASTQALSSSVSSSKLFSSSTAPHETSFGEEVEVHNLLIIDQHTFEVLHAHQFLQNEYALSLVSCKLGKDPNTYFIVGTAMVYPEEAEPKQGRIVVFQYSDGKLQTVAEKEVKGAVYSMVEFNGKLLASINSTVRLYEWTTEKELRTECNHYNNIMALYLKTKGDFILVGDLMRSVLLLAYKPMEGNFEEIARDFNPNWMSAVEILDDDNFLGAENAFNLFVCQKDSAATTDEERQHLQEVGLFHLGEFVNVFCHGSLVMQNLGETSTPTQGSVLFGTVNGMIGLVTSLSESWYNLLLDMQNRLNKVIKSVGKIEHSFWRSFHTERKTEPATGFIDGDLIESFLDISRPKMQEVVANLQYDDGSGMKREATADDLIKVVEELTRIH
Summary of the method: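 Quantification by ImageJ densitometry of Western blot bands: DC50 is the fitted concentration halving band intensity relative to DMSO. Percent remaining uses internal-control normalization, and degradation rate is its complement.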

[5] = test system: H1975; test: CCK-8 proliferation, NCI-H1975 (H1975); format: cell-based, Human; settings: Homo sapiens, NCI-H1975; Table B6, compounds designed based on the ALK inhibitors; H1975 cells; read-out: Inhibitory activity (IC50, nM) on tumor cell proliferation, H1975
Summary of the method: as §1

IC50 [2]	IC50 [3]	IC50 [5]	SMILES	IC50 [1]	Degradation of substrate protein ALK (substrate protein remaining %) [4]
50 to 100 nM	100 to 500 nM	500 to 1000 nM	COc1cc(N2CCC(N(C)Cc3ccc(N4CCC(=O)NC4=O)cn3)CC2)ccc1Nc1ncc(Cl)c(Nc2ccccc2P(C)(C)=O)n1 [GT-07617, 1-(6-(((1-(4-((5-chloro-4-((2-(dimethylphosphoryl)phenyl)amino)pyrimidin-2-yl)amino)-3-methoxyphenyl)piperidin-4-yl)(methyl)amino)methyl)pyridin-3-yl)dihydropyrimidine-2,4(1H,3H)-dione]	10 to 50 nM	A (A is defined as 0% ≤ substrate protein remaining % ≤ 80%)
100 to 500 nM	500 to 1000 nM	500 to 1000 nM	COc1cc(N2CCC(N(C)Cc3cc(C4CCC(=O)NC4=O)cnc3F)CC2)ccc1Nc1ncc(Cl)c(Nc2ccccc2P(C)(C)=O)n1 (stereo not drawn) [GT-07696, 3-(5-(((1-(4-((5-chloro-4-((2-(dimethylphosphoryl)phenyl)amino)pyrimidin-2-yl)amino)-3-methoxyphenyl)piperidin-4-yl)(methyl)amino)methyl)-6-fluoropyridin-3-yl)piperidine-2,6-dione]	10 to 50 nM	A (A is defined as 0% ≤ substrate protein remaining % ≤ 80%)
100 to 500 nM	100 to 500 nM	500 to 1000 nM	COc1cc(N2CCC(N(C)Cc3ccc(C4CCC(=O)NC4=O)cn3)CC2)ccc1Nc1ncc(Cl)c(Nc2ccccc2P(C)(C)=O)n1 (stereo not drawn) [GT-07698, 3-(6-(((1-(4-((5-chloro-4-((2-(dimethylphosphoryl)phenyl)amino)pyrimidin-2-yl)amino)-3-methoxyphenyl)piperidin-4-yl)(methyl)amino)methyl)pyridin-3-yl)piperidine-2,6-dione]	10 to 50 nM	A (A is defined as 0% ≤ substrate protein remaining % ≤ 80%)

Continued, compound first:

SMILES	IC50 [2]	IC50 [3]	IC50 [5]	IC50 [1]	Degradation of substrate protein ALK (substrate protein remaining %) [4]
COc1cc(N2CCC(N3CCN(Cc4cncc(N5CCC(=O)NC5=O)c4)CC3)CC2)ccc1Nc1ncc(Cl)c(Nc2ccccc2P(C)(C)=O)n1 [GT-07610, 1-(5-((4-(1-(4-((5-chloro-4-((2-(dimethylphosphoryl)phenyl)amino)pyrimidin-2-yl)amino)-3-methoxyphenyl)piperidin-4-yl)piperazin-1-yl)methyl)pyridin-3-yl)dihydropyrimidine-2,4(1H,3H)-dione]	50 to 100 nM	500 to 1000 nM	500 to 1000 nM	1 to 10 nM	A (A is defined as 0% ≤ substrate protein remaining % ≤ 80%)
COc1cc(N2CCC(N3CCN(Cc4cncc(C5CCC(=O)NC5=O)c4)CC3)CC2)ccc1Nc1ncc(Cl)c(Nc2ccccc2P(C)(C)=O)n1 (stereo not drawn) [GT-07614, 3-(5-((4-(1-(4-((5-chloro-4-((2-(dimethylphosphoryl)phenyl)amino)pyrimidin-2-yl)amino)-3-methoxyphenyl)piperidin-4-yl)piperazin-1-yl)methyl)pyridin-3-yl)piperidine-2,6-dione]	100 to 500 nM	500 to 1000 nM	500 to 1000 nM	1 to 10 nM	A (A is defined as 0% ≤ substrate protein remaining % ≤ 80%)
COc1cc(N2CCC(N(C)Cc3ccc(N4CCC(=O)NC4=O)nc3)CC2)ccc1Nc1ncc(Cl)c(Nc2ccccc2P(C)(C)=O)n1 [GT-07691, 1-(5-(((1-(4-((5-chloro-4-((2-(dimethylphosphoryl)phenyl)amino)pyrimidin-2-yl)amino)-3-methoxyphenyl)piperidin-4-yl)(methyl)amino)methyl)pyridin-2-yl)dihydropyrimidine-2,4(1H,3H)-dione]	50 to 100 nM	100 to 500 nM	100 to 500 nM	1 to 10 nM	A (A is defined as 0% ≤ substrate protein remaining % ≤ 80%)
